Measured values reported in patent US12002595B2, “Separation of metal ions by liquid-liquid extraction” (priority 2016, dated 2024).

Tests used:
[1] = Lu^3+; 25° C.; cited from earlier work
[2] = Extraction by HDEHP at constant pH with 3,4,3-LI(1,2-HOPO) as hold-back reagent; conditions: 1 mM ligand; for % Extraction: 0.1 M HNO3/1.9 M NaNO3, extraction of ^153Gadolinium(III); for SF Gd^3+/Pu^4+: to be seen as lower limit
Description: In FIG. 26, aqueous phase: [ligand]=1 mM, buffer 0.1 M HNO3/1.9 M NaNO3. Organic phase: HDEHP diluted in kerosene. [HDEHP]=0.05, 0.10, 0.25, 0.50, 1.0, or 2.0 M. T=25° C. Volume organic phase/Volume aqueous phase=1. Initial metal concentrations: [Pu-242]=10 μM, [Am-243]=0.25 μM, or [Gd-153]=0.16 nM. Phases analyzed after one contact. Contact time: 30 min.
The separation factor values given here must been seen as lower limit since the extraction of Pu(IV) is near zero. […]

[3] = Extraction by TODGA from HNO3 in the absence or presence of 1 mM 343HOPO
Description: Organic phase: 0.1 M TODGA in kerosene. Aqueous solvent: HNO3. T=25° C. O/A=1, one contact. Points with arrows are lower limits.
For Example 20—Example 24, pH measurements were performed with a glass electrode (Metrohm-Micro Combi-response to [H+]) calibrated at 25.0° C. using three NIST standards. Extraction samples were analyzed by liquid scintillation counting (LSC). The distribution coefficient, D(M), of a given metal, M, is defined in Eq. 1, where [M]organic and [M]aqueous are the respective total concentrations of M in the organic and aqueous layers, after extraction. Both concentrations are proportional to the volumetric activity (in Bq/L) determined by LSC. The separation factor, SFM1/M2, between two metals, M1 and M2, and extraction yield were calculated according to Eq. 2 and Eq. 3, respectively.
In a typical experiment, the solvent (extractant diluted in kerosene) was pre-conditioned by shaking one volume of solvent with three volumes of aqueous phase (typically HNO3) at room temperature for 1 h, thrice. For radioisotope extractions, at least 400 μL aqueous phase (typically containing HNO3, a chelator and a radioisotope) and solvent were placed in air-tight screw-capped plastic tubes, triply-contained, and shaken in a thermoshaker at 300 rpm, 25° C., for at least 30 min. Samples were then centrifuged for 5 min at 3000 rpm and phases separated before analysis. LSC analyses were performed on a Packard Tri-Carb B4430 instrument (Perkin Elmer) after mixing sample aliquots or sample dilution aliquots (10 to 200 μL) with 10 mL of scintillation cocktail (UltimaGold LLT). Samples were counted for at least 6 min and results were background subtracted. The analytical samples contained between 0 and 800,000 CPM. Mixtures of ^249Bk and ^249Cf were analyzed using α/β discrimination and energy windows were set to 0-50 keV for low-energy β particles of ^249Bk and 50-1000 keV for α particles of ^249Cf. ^243Am and ^225Ac samples were counted at secular equilibrium.

[4] = Ligand selectivity from stability constants; assay type: binding
From the text: While this class of ligands, encompassing HOPO and catecholamide (CAM) derivatives, has been known for decades, it had never been studied in details for separation applications. In fact, a few exceptions aside, most of these chelators have only been studied with a single cation, such as Gd^3+, Th^4+, or Pu^4+, impairing broader evaluation of their metal-metal selectivity. The chemistry of some HOPO ligands was recently extended across the periodic table, highlighting their outstanding selectivity, and large superiority over polyaminocarboxylate chelators (IDA, EDTA, DTPA, etc.), typically encountered in separations (FIGS. 46A-46F). Stability constants (log βML) were calculated as described in Sturzbecher-Hoehne, M., Kullgren, B., Jarvis, E. E., An, D. D. & Abergel, R. J. Highly Luminescent and Stable Hydroxypyridinonate Complexes: A Step Towards New Curium Decontamination Strategies. Chem. Eur. J. 20, 9962-9968 (2014); Sturzbecher-Hoehne, M., Yang, P., D'Aldo, A. & Abergel, R. J. Intramolecular sensitization of americium luminescence in solution: shining light on short-lived forbidden 5f transitions. Dalton Trans. 45, 9912-9919 (2016); Deblonde, G. J.-P., Lohrey, T. D., An, D. D. & Abergel, R. J. Toxic heavy metal—Pb, Cd, Sn—complexation by the octadentate hydroxypyridinonate ligand archetype 3,4,3-LI(1,2-HOPO). New J. Chem. 42, 7649-7658 (2018). […]

## O=C(NCCCN(CCCCN(CCCNC(=O)c1cccc(=O)n1O)C(=O)c1cccc(=O)n1O)C(=O)c1cccc(=O)n1O)c1cccc(=O)n1O [3,4,3-LI(1,2-HOPO)]
[1]
  log βML: 21.2 ± 0.1
[2]; HDEHP 0.05 M
  % Extraction: 4.92%
  SF Gd^3+/Pu^4+: 331
[2]; HDEHP 0.10 M
  % Extraction: 23.79%
  SF Gd^3+/Pu^4+: 1948
[2]; HDEHP 0.25 M
  % Extraction: 73.91%
  SF Gd^3+/Pu^4+: 5976
[2]; HDEHP 0.50 M
  % Extraction: 92.15%
  SF Gd^3+/Pu^4+: 39182
[2]; HDEHP 1.00 M
  % Extraction: 97.85%
  SF Gd^3+/Pu^4+: 28460
[2]; HDEHP 2.00 M
  % Extraction: 99.26%
  SF Gd^3+/Pu^4+: 64723
[3]; 1 mM 343HOPO, 0.1 M TODGA in kerosene
  SFU/Pu: around 50,000
[3]; 1 mM 343HOPO, 0.1 M TODGA in kerosene, LoD reached
  SF values between the trivalent ions and Pu^4+: above 450,000,000
[3]; summary statement
  separation factor for redox-free Pu purification against uranyl ions and trivalent actinides or fission products: over 10^8
[4]
  Ce^4+/Ce^3+ selectivity above what could be expected from a carboxylate ligand: about 15 orders of magnitude
